Results reported in ChEMBL document CHEMBL1799910, “Optimization of 1,2,3,4-tetrahydroacridin-9(10H)-ones as antimalarials utilizing structure-activity and structure-property relationships” (J Med Chem, 2011).
In brackets after ≈: the same amount, converted by molar mass.

Assays:
[1] = Aqueous solubility of compound at pH 7.4 by HPLC analysis; conditions: buffer
[2] = Partition coefficient, log D of the compound at pH 7.4 by HPLC analysis; conditions: octanol/water
Plasmodium falciparum [3] = test: Antimalarial activity against chloroquine and pyrimethamine-resistant Plasmodium falciparum W2 infected in human A positive erythrocytes after 72 hrs by SYBR Green I assay; assay type: functional, organism-based; conditions: W2, 72 h
Plasmodium falciparum [4] = test: Resistance index, ratio of EC50 for chloroquine, mefloquine, pyrimethamine and atovaquone-resistant Plasmodium falciparum TM90-C2B to EC50 for chloroquine and pyrimethamine-resistant Plasmodium falciparum W2; assay type: functional
Plasmodium falciparum [5] = test: Antimalarial activity against chloroquine, mefloquine, pyrimethamine and atovaquone-resistant Plasmodium falciparum TM90-C2B infected in human A positive erythrocytes after 72 hrs by SYBR Green I assay; assay type: functional, organism-based
[6] = Permeability of the compound by PAMPA method at pH 7.4; assay type: ADME; conditions: read-out: permeability
[7] = Cytotoxicity index, ratio of EC50 for mouse J774 cells to EC50 for chloroquine, mefloquine, pyrimethamine and atovaquone-resistant Plasmodium falciparum TM90-C2B; assay type: cell-based; conditions: read-out: Ratio EC50
J774 = test: Cytotoxicity against mouse J774 cells after 72 hrs by Cell titer 96 aqueous one solution cell proliferation assay; assay type: cell-based; conditions: J774, 72 h

Row | SMILES | solubility [1] | logD [2] | EC50 (Plasmodium falciparum [3]) | Ratio EC50 (Plasmodium falciparum [4]) | EC50 (Plasmodium falciparum [5]) | Papp [6] | selectivity ratio [7] | EC50 (J774)
1 | Oc1c2c(nc3ccc(Br)cc13)CCCC2 | 2 µM (≈ 0.556 µg/mL) | 2.1 | 197 nM | 0.32 | 64.7 nM | 63 ×10⁻⁶ cm/s | ≥ 100 | > 2000 nM
2 | Cc1ccc2c(=O)c3c([nH]c2c1)CCC(C)(C)C3 | 75 µM (≈ 18.1 µg/mL) | 2.4 | 166 nM | 11.9 | 1980 nM | 82 ×10⁻⁶ cm/s | ≥ 100 | > 40000 nM
3 | Cc1ccc2[nH]c3c(c(=O)c2c1)CC(C)(C)CC3 | 52 µM (≈ 12.5 µg/mL) | 2.4 | 474 nM | 4.6 | 2180 nM | 84 ×10⁻⁶ cm/s | ≥ 100 | > 40000 nM
4 | Cc1cccc2[nH]c3c(c(=O)c12)CC(C)(C)CC3 | 45 µM (≈ 10.9 µg/mL) | 2.7 | 3020 nM | 1.37 | 4130 nM | 269 ×10⁻⁶ cm/s | ≥ 100 | > 40000 nM
5 | CC1(C)CCc2[nH]c3c(Cl)cccc3c(=O)c2C1 | 62 µM (≈ 16.2 µg/mL) | 2.9 | 4670 nM | 1.01 | 4730 nM | 427 ×10⁻⁶ cm/s | ≥ 100 | > 20000 nM
6 | CC1(C)CCc2[nH]c3cc(Cl)ccc3c(=O)c2C1 | 1 µM (≈ 0.262 µg/mL) | 2.8 | 240 nM | 3.45 | 829 nM | 62 ×10⁻⁶ cm/s | ≥ 100 | > 40000 nM
7 | CC1(C)CCc2[nH]c3ccc(Cl)cc3c(=O)c2C1 | 1 µM (≈ 0.262 µg/mL) | 2.6 | 256 nM | 0.46 | 118 nM | 63 ×10⁻⁶ cm/s | ≥ 100 | > 40000 nM
8 | CC1(C)CCc2[nH]c3cccc(Cl)c3c(=O)c2C1 | 23 µM (≈ 6.02 µg/mL) | 2.4 | 373 nM | 1.61 | 599 nM | 117 ×10⁻⁶ cm/s | ≥ 100 | > 40000 nM
9 | CC1(C)CCc2c([nH]c3ccccc3c2=O)C1 | 64 µM (≈ 14.5 µg/mL) | 1.9 | 1870 nM | 0.18 | 335 nM | 43 ×10⁻⁶ cm/s | ≥ 100 | > 40000 nM
10 | COc1cccc2c(=O)c3c([nH]c12)CC(C)(C)CC3 | 91 µM (≈ 23.4 µg/mL) | 2.4 | 6540 nM | 0.38 | 2490 nM | 114 ×10⁻⁶ cm/s | ≥ 100 | > 20000 nM
11 | COc1cccc2[nH]c3c(c(=O)c12)CCC(C)(C)C3 | 64 µM (≈ 16.5 µg/mL) | 1.7 | > 9720 nM | <0.42 | 4100 nM | 43 ×10⁻⁶ cm/s | ≥ 100 | > 20000 nM
12 | Cc1cccc2c(=O)c3c([nH]c12)CC(C)(C)CC3 | 60 µM (≈ 14.5 µg/mL) | 2.3 | 2370 nM | 0.74 | 1750 nM | 88 ×10⁻⁶ cm/s | ≥ 100 | > 40000 nM
13 | Cc1ccc2c(=O)c3c([nH]c2c1)CC(C)(C)CC3 | 17 µM (≈ 4.1 µg/mL) | 2.49 | 1460 nM | 0.66 | 965 nM | 53 ×10⁻⁶ cm/s | ≥ 100 | > 10000 nM
14 | Cc1ccc2[nH]c3c(c(=O)c2c1)CCC(C)(C)C3 | 4 µM (≈ 0.965 µg/mL) | 2.4 | 587 nM | 0.54 | 319 nM | 78 ×10⁻⁶ cm/s | ≥ 100 | > 2000 nM
15 | CC1(C)CCc2c([nH]c3c(Cl)cccc3c2=O)C1 | 20 µM (≈ 5.24 µg/mL) | 3 | 6700 nM | >1.42 | > 9550 nM | 407 ×10⁻⁶ cm/s | ≥ 100 | > 20000 nM
16 | CC1(C)CCc2c([nH]c3ccc(Cl)cc3c2=O)C1 | 2 µM (≈ 0.524 µg/mL) | 2.7 | 215 nM | 2.5 | 538 nM | 96 ×10⁻⁶ cm/s | ≥ 100 | > 1000 nM
17 | CC1(C)CCc2c([nH]c3cccc(Cl)c3c2=O)C1 | 6 µM (≈ 1.57 µg/mL) | 2.5 | 2990 nM | 1.78 | 5330 nM | 103 ×10⁻⁶ cm/s | ≥ 100 | > 5000 nM
18 | O=c1c2c([nH]c3cc([N+](=O)[O-])ccc13)CCCC2 | 3 µM (≈ 0.733 µg/mL) | 1.5 | 1050 nM | 0.91 | 959 nM | 63 ×10⁻⁶ cm/s | ≥ 100 | > 2000 nM
